Structures can show the parent of a compound that is named as a salt.
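Also: Aβ(1-42) released into conditioned medium captured by ELISA after roughly 24 h compound exposure, vehicle and inhibitor controls defining maximal and minimal inhibition.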

The first test has as its system production of amyloid beta protein Aβ(1-42) in human WT-APP overexpressing CHO cells. The following applies: Homo sapiens, CHO, read-out: Aβ 42 IC50.
Procedure: Cell-Based γ-Secretase Assay with ELISA Readout
The ability of compounds to modulate production of amyloid beta protein Aβ(1-42) was determined using human WT-APP overexpressing CHO cells. Cells were plated at 22,000 cells/100 μL well in 96 well tissue culture treated, clear plates (Falcon) in DMEM/F12 based medium and incubated for 24 hours at 37° C. […] Compounds were added in fresh medium to achieve 1% final DMSO. Appropriate vehicle and inhibitor controls were added to obtain maximum and minimum inhibition values for the assay before the plates were incubated for about 24 hours at 37° C.
Coating of ELISA assay plates was initiated by addition of 50 μL/well of an in house Aβ(1-42) specific antibody at (4 μg/mL) in 0.1 M NaHCO3 (pH 9.0) into black 384-well Maxisorp® plates (Nunc) and incubated overnight at 4° C. […] Ambient temperature incubation was allowed to proceed for a minimum of two hours before washing 2×100 μL with Wash Buffer (Dulbecco's PBS, 0.05% Tween 20). Assay Buffer (Dulbecco's PBS, 1.0% BSA (Sigma A7030), 0.05% Tween 20) 20 μL/well is then added.
After incubation overnight at 37° C., 5% CO2, 40 μL (in duplicate) of experimental conditioned media are transferred into wells of the blocked ELISA plates containing the capture antibody, followed by overnight incubation at 4° C.
After overnight incubation of the ELISA assay plates at 4° C., unbound Aβ peptides were removed thorough (4×100 μL) washes with Wash Buffer.
In the case of `CCOc1cccc(CCNC(=O)c2ccc(-n3cnc(C)c3)c(OC)c2)c1` [Example 112, N-[2-(3-ethoxyphenyl)ethyl]-3-methoxy-4-(4-methyl-1H-imidazol-1-yl)benzamide], the IC50 is 765 nM. On the same count and under the same terms, then `COc1cc(C(=O)NCCc2ccccc2Cl)ccc1-n1cnc(C)c1` [Example 79, N-[2-(2-chlorophenyl)ethyl]-3-methoxy-4-(4-methyl-1H-imidazol-1-yl)benzamide], with 495 nM.

Still in this test, the particulars now being: Homo sapiens, CHO, read-out: Aβ 42 IC50, Geometric mean of 2-8 determinations; human WT-APP overexpressing CHO cells.
Consider `COc1cc(C(=O)N2CC(COc3ccccc3C(F)(F)F)C2)ccc1-n1cnc(C)c1` [Example 131, 1-{2-methoxy-4-[(3-{[2-(trifluoro-methyl)phenoxy]methyl}azetidin-1-yl)carbonyl]phenyl}-4-methyl-1H-imidazole], for which the IC50 amounted to 311 nM. Take `COc1cc(C(=O)N2CC(COc3cccc(C(F)(F)F)c3)C2)ccc1-n1cnc(C)c1` [Example 133, 1-{2-methoxy-4-[(3-{[3-(trifluoromethyl)phenoxy]methyl}azetidin-1-yl)carbonyl]phenyl}-4-methyl-1H-imidazole]: the IC50 is 496 nM. In the case of `COc1cc(C(=O)N2CCCC(Oc3ccccc3C(C)C)C2)ccc1-n1cnc(C)c1` (stereo not shown) [Example 85, 3-(2-isopropylphenoxy)-1-[3-methoxy-4-(4-methyl-1H-imidazol-1-yl)benzoyl]piperidine], the IC50 turned out to be 533 nM. The same measure, in the same setting: then `COc1cc(C(=O)NCc2ccc(F)cc2Cl)ccc1-n1cnc(C)c1` [Example 76, N-(2-chloro-4-fluorobenzyl)-3-methoxy-4-(4-methyl-1H-imidazol-1-yl)benzamide], with 476 nM; and `COc1cc(C(=O)NC2COc3c(F)cc(Cl)cc32)ccc1-n1cnc(C)c1` (single isomer, unassigned) [Example 127, N-(5-chloro-7-fluoro-2,3-dihydro-1-benzofuran-3-yl)-3-methoxy-4-(4-methyl-1H-imidazol-1-yl)benzamide trifluoroacetate salt], with 521 nM.

As for `COc1cc(C(=O)N2CCC(c3cccc(Cl)c3)C2)ccc1-n1cnc(C)c1` (stereo not shown) [Example 98, 1-(4-{[3-(3-chlorophenyl)pyrrolidin-1-yl]carbonyl}-2-methoxyphenyl)-4-methyl-1H-imidazole], the IC50 stood at 642 nM. For `COc1cc(C(=O)N2CCC(Oc3cccc(C(F)(F)F)c3)CC2)ccc1-n1cnc(C)c1` [Example 119, 1-[3-methoxy-4-(4-methyl-1H-imidazol-1-yl)benzoyl]-4-[3-(trifluoromethyl)phenoxy]piperidine], the IC50 was determined as 847 nM. Still for that read-out and setting: then `CCOc1cc(C)c(CN(C(=O)c2ccc(-n3cnc(C)c3)c(OC)c2)C2CC2)cc1C(C)C` [Example 124, N-cyclopropyl-N-(4-ethoxy-5-isopropyl-2-methylbenzyl)-3-methoxy-4-(4-methyl-1H-imidazol-1-yl)benzamide], with 114 nM; and `COc1cc(C(=O)N[C@@H]2COC[C@@H]2Oc2ccc(Br)cc2)ccc1-n1cnc(C)c1` [Example 48, N-[(3R,4R)-4-(4-bromophenoxy)-tetrahydro-furan-3-yl]-3-methoxy-4-(4-methylimidazol-1-yl)benzamide], with 1740 nM. Regarding `COc1cc(C(=O)NCc2csc3ccc(Cl)cc23)ccc1-n1cnc(C)c1` [Example 9, N-[(5-chloro-1-benzothien-3-yl)methyl]-3-methoxy-4-(4-methyl-1H-imidazol-1-yl)benzamide], the IC50 is 158 nM.

As for `COc1cc(C(=O)NC2CCCc3c(O)cccc32)ccc1-n1cnc(C)c1` (stereo not shown) [Example 106, N-(5-hydroxy-1,2,3,4-tetrahydronaphthalen-1-yl)-3-methoxy-4-(4-methyl-1H-imidazol-1-yl)benzamide], the IC50 came to 731 nM. Regarding `COc1cc(C(=O)NC2COc3ccc(C(F)(F)F)cc32)ccc1-n1cnc(C)c1` (stereo not shown) [Example 130, 3-methoxy-4-(4-methyl-1H-imidazol-1-yl)-N-[5-(trifluoro-methyl)-2,3-dihydro-1-benzofuran-3-yl]benzamide], the IC50 came out at 666 nM. For the molecule `COc1cc(C(=O)NC(c2ccc(F)cc2)c2cccs2)ccc1-n1cnc(C)c1` (stereo not shown) [Example 41, N-[(4-fluoro-phenyl)(2-thienyl)methyl]-3-methoxy-4-(4-methyl-1H-imidazol-1-yl)benzamide, trifluoroacetic acid salt], the IC50 was 328 nM. For the molecule `COc1cc(C(=O)Nc2[nH]nc(C)c2-c2cccc(C(F)(F)F)c2)ccc1-n1cnc(C)c1` [Example 10, 3-methoxy-4-(4-methyl-1H-imidazol-1-yl)-N-{3-methyl-4-[3-(trifluoro-methyl)phenyl]-1H-pyrazol-5-yl}benzamide], the IC50 worked out at 245 nM.

The test is the same for the next values; noted with them: Homo sapiens, CHO, read-out: Aβ 42 IC50, Geometric mean of at least 2 determinations; human WT-APP overexpressing CHO cells.
In the case of `COc1cc(C(=O)N2CC(COc3cccc4ccccc34)C2)ccc1-n1cnc(C)c1` [Example 135, 1-[2-methoxy-4-({3-[(1-naphthyloxy)methyl]azetidin-1-yl}carbonyl)phenyl]-4-methyl-1H-imidazole trifluoroacetate salt], the IC50 is 111 nM. For `CCc1cc(F)ccc1OCC1CN(C(=O)c2ccc(-n3cnc(C)c3)c(OC)c2)C1` [Example 138, 1-[4-({3-[(2-ethyl-4-fluorophenoxy)methyl]azetidin-1-yl}carbonyl)-2-methoxyphenyl]-4-methyl-1H-imidazole trifluoroacetate salt], the IC50 turned out to be 537 nM.

The same test, now with this note: Homo sapiens, CHO, read-out: GM Aβ 42B IC50, Geometric Mean of 2-8 Determinations; human WT-APP overexpressing CHO cells.
Consider `Cc1cn(-c2ccc(C(=O)NCC3(c4cccc(C(F)(F)F)c4)CCOCC3)cc2F)cn1` [Example 7, 3-fluoro-4-(4-methyl-1H-imidazol-1-yl)-N-({4-[3-(trifluoromethyl)phenyl]tetrahydro-2H-pyran-4-yl}methyl)benzamide, formic acid salt], for which the IC50 is 2190 nM.

Still in this test, the particulars now being: read-out: Aβ 42 IC50.
Regarding `COc1cc(C(=O)N[C@@H](C)c2ccc(C)cc2)ccc1-n1cnc(C)c1` [Example 110, 3-methoxy-4-(4-methyl-1H-imidazol-1-yl)-N-[(1S)-1-(4-methylphenyl)ethyl) benzamide], the IC50 turned out to be 747 nM.

Staying with this test, now noted: read-out: Aβ 42 IC50; Geometric mean of 2-8 determinations; human WT-APP overexpressing CHO cells.
As to `COc1cc(C(=O)NCC2(c3ccc(Cl)cc3)CCCC2)ccc1-n1cnc(C)c1` [Example 36, N-{[1-(4-chlorophenyl)cyclopentyl]methyl}-3-methoxy-4-(4-methyl-1H-imidazol-1-yl) benzamide], the IC50 amounted to 209 nM.

As for `COc1cc(C(=O)NC(C)(C)c2cccc(C(F)(F)F)c2)ccc1-n1cnc(C)c1` [Example 32, 3-methoxy-4-(4-methyl-1H-imidazol-1-yl)-N-{1-methyl-1-[3-(trifluoro-methyl)phenyl]ethyl} benzamide], the IC50 was 619 nM.

As for `COc1cc(C(=O)NCc2cccc(Oc3ccccc3)c2)ccc1-n1cnc(C)c1` [Example 60, 3-methoxy-4-(4-methyl-1H-imidazol-1-yl)-N-(3-phenoxybenzyl) benzamide], the IC50 was 353 nM. With `COc1cc(C(=O)NCC2(c3ccc(Cl)cc3)CC2)ccc1-n1cnc(C)c1` [Example 30, N-{[1-(4-chlorophenyl)cyclopropyl]methyl}-3-methoxy-4-(4-methyl-1H-imidazol-1-yl) benzamide], the IC50 amounted to 231 nM. For `COc1cc(C(=O)NC(C)c2ccc3[nH]ccc3c2)ccc1-n1cnc(C)c1` (stereo not shown) [Example 99, N-[1-(1H-indol-5-yl)ethyl]-3-methoxy-4-(4-methyl-1H-imidazol-1-yl) benzamide], the IC50 stood at 665 nM. On the same count and under the same terms, then `COc1cc(C(=O)NCC2(c3ccc(C(F)(F)F)cc3)CCCC2)ccc1-n1cnc(C)c1` [Example 33, 3-methoxy-4-(4-methyl-1H-imidazol-1-yl)-N-({1-[4-(trifluoro-methyl)phenyl]cyclopentyl}methyl) benzamide, formic acid salt], with 139 nM; and `COc1cc(C(=O)NCc2cc(C)ccc2C)ccc1-n1cnc(C)c1` [Example 82, N-(2,5-dimethylbenzyl)-3-methoxy-4-(4-methyl-1H-imidazol-1-yl) benzamide], with 513 nM; and `COc1cc(C(=O)NCc2sc3c(F)ccc(F)c3c2Cl)ccc1-n1cnc(C)c1` [Example 58, N-[(3-chloro-4,7-difluoro-1-benzothien-2-yl)methyl]-3-methoxy-4-(4-methyl-1H-imidazol-1-yl) benzamide], with 346 nM. On to `COc1cc(C(=O)NCc2ccc(C(=O)c3ccccc3)cc2)ccc1-n1cnc(C)c1` [Example 43, N-(4-benzoyl-benzyl)-3-methoxy-4-(4-methyl-1H-imidazol-1-yl) benzamide], for which the IC50 was determined as 582 nM.

Regarding `COc1cc(C(=O)NCCOc2ccccc2Cl)ccc1-n1cnc(C)c1` [Example 90, N-[2-(2-chlorophenoxy)ethyl]-3-methoxy-4-(4-methyl-1H-imidazol-1-yl) benzamide], the 50% inhibitory concentration (IC50) came out at 573 nM.

As for `COc1cc(C(=O)NCc2cc(F)cc(C(F)(F)F)c2)ccc1-n1cnc(C)c1` [Example 62, N-[3-fluoro-5-(trifluoromethyl)benzyl]-3-methoxy-4-(4-methyl-1H-imidazol-1-yl) benzamide], the IC50 was 369 nM.

Take `COc1cc(C(=O)NCc2ccc(C(F)(F)F)c(F)c2)ccc1-n1cnc(C)c1` [Example 83, N-[3-fluoro-4-(trifluoromethyl)benzyl]-3-methoxy-4-(4-methyl-1H-imidazol-1-yl) benzamide]: the half-maximal inhibitory concentration (IC50) was 514 nM. On to `COc1cc(C(=O)NCc2nc(-c3ccc(Cl)cc3)no2)ccc1-n1cnc(C)c1` [Example 45, N-{[3-(4-chlorophenyl)-1,2,4-oxadiazol-5-yl]methyl}-3-methoxy-4-(4-methyl-1H-imidazol-1-yl) benzamide, formic acid salt], for which the half-inhibitory concentration (IC50) was found to be 730 nM. Same read-out and setting: the value for `COc1cc(C(=O)NCc2ccccc2OC(F)(F)F)ccc1-n1cnc(C)c1` [Example 75, 3-methoxy-4-(4-methyl-1H-imidazol-1-yl)-N-[2-(trifluoromethoxy)benzyl] benzamide] was 469 nM.
